Results published in patent US9458153B2, “Dihydroquinolizinones for the treatment and prophylaxis of hepatitis B virus infection” (Hoffmann-La Roche Inc., priority 2014, dated 2016).
pIC50: −log10 of the molar value. Where a name gives a salt, the structure may show the parent alone.

Tested on: HBsAg
Experiment: HBsAg assay (chemiluminescence immunoassay of secreted HBsAg in HepG2.2.15 culture supernatant)
Type: cell-based, HBV
Conditions: HBsAg secretion reduced by 50% vs no drug control, HepG2.2.15 cells, CLIA kit
How it was run: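 IC50 came from dose-response curves of HBsAg in culture supernatant, measured semi-quantitatively by chemiluminescent immunoassay. The HBV-producing HepG2.2.15 line was dosed in duplicate with a three-fold compound dilution series, with DMSO at 1% final and DMSO alone as the no-drug control.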

| SMILES | pIC50 | pIC50 (hydrochloride) |
| --- | --- | --- |
| COc1cc2c(cc1OC)-c1cc(=O)c(C(=O)O)cn1C(C)C2 (single isomer, unassigned; (-)) [Example 68, (−)-9,10-dimethoxy-6-methyl-2-oxo-6,7-dihydrobenzo[a]quinolizine-3-carboxylic acid] | 5.25 | – |
| CCCOc1cc2c(cc1OC)-c1cc(=O)c(C(=O)O)cn1C(CC)C2 (single isomer, unassigned; (-)) [Example 80, (−)-6-ethyl-10-methoxy-2-oxo-9-propoxyl-6,7-dihydrobenzo[a]quinolizine-3-carboxylic acid] | 6.72 | – |
| CCC1Cc2cc(OC)c(C3CC3)cc2-c2cc(=O)c(C(=O)O)cn21 (single isomer, unassigned; (-)) [Example 91, (−)-10-cyclopropyl-6-ethyl-9-methoxy-2-oxo-6,7-dihydrobenzo[a]quinolizine-3-carboxylic acid] | 6.30 | – |
| COc1cc2c(cc1OC)-c1cc(=O)c(C(=O)O)cn1C(C(C)C)C2 (single isomer, unassigned; (-)) [Example 100, (−)-6-isopropyl-9,10-dimethoxy-2-oxo-6,7-dihydrobenzo[a]quinolizine-3-carboxylic acid] | 5.27 | – |
| COc1cc2c(cc1OC)-c1cc(=O)c(C(=O)O)cn1C(CC(C)C)C2 (single isomer, unassigned; (-)) [Example 103, (−)-6-isobutyl-9,10-dimethoxy-2-oxo-6,7-dihydrobenzo[a]quinolizine-3-carboxylic acid] | 5.47 | – |
| COCCOc1cc2c(cc1Cl)-c1cc(=O)c(C(=O)O)cn1C(CC(C)C)C2 (single isomer, unassigned; (-)) [Example 106, (−)-10-chloro-6-isobutyl-9-(2-methoxyethoxy)-2-oxo-6,7-dihydrobenzo[a]quinolizine-3-carboxylic acid] | 5.14 | – |
| COCCOc1cc2c(cc1Cl)-c1cc(=O)c(C(=O)O)cn1C(C(C)C)C2 (single isomer, unassigned; (-)) [Example 109, (−)-10-chloro-6-isopropyl-9-(2-methoxyethoxy)-2-oxo-6,7-dihydrobenzo[a]quinolizine-3-carboxylic acid] | 7.21 | – |
| CCC1Cc2cc(OCc3ccccc3)c(C)cc2-c2cc(=O)c(C(=O)O)cn21 (single isomer, unassigned; (-)) [Example 117, (−)-9-benzyloxy-6-ethyl-10-methyl-2-oxo-6,7-dihydrobenzo[a]quinolizine-3-carboxylic acid] | 6.04 | – |
| COCCCOc1cc2c(cc1Cl)-c1cc(=O)c(C(=O)O)cn1C(C(C)C)C2 (single isomer, unassigned; (-)) [Example 122, (−)-10-chloro-6-isopropyl-9-(3-methoxypropoxy)-2-oxo-6,7-dihydrobenzo[a]quinolizine-3-carboxylic acid] | 6.16 | – |
| COc1cc2c(cc1OCC(F)(F)F)CC(C(C)C)n1cc(C(=O)O)c(=O)cc1-2 (single isomer, unassigned; (-)) [Example 128, (−)-6-isopropyl-10-methoxy-2-oxo-9-(2,2,2-trifluoroethoxy)-6,7-dihydrobenzo[a]quinolizine-3-carboxylic acid] | 6.17 | – |
| COCCOc1cc2c(cc1OC)-c1cc(=O)c(C(=O)O)cn1C(C(C)C)C2 (single isomer, unassigned; (-)) [Example 130, (−)-6-isopropyl-10-methoxy-9-(2-methoxyethoxy)-2-oxo-6,7-dihydrobenzo[a]quinolizine-3-carboxylic acid] | 5.81 | – |
| COCCCOc1cc2c(cc1OC)-c1cc(=O)c(C(=O)O)cn1C(C(C)(C)C)C2 (single isomer, unassigned; (-)) [Example 133, (−)-6-tert-butyl-10-methoxy-9-(3-methoxypropoxy)-2-oxo-6,7-dihydrobenzo[a]quinolizine-3-carboxylic acid] | 6.48 | – |
| COCCOc1cc2c(cc1OC)-c1cc(=O)c(C(=O)O)cn1C(C1(C)CC1)C2 (single isomer, unassigned; (-)) [Example 136, (−)-10-methoxy-9-(2-methoxyethoxy)-6-(1-methylcyclopropyl)-2-oxo-6,7-dihydrobenzo[a]quinolizine-3-carboxylic acid] | 6.40 | – |
| COCCCOc1cc2c(c(Cl)c1F)-c1cc(=O)c(C(=O)O)cn1C(C(C)C)C2 (single isomer, unassigned; (-)) [Example 139, (−)-11-chloro-10-fluoro-6-isopropyl-9-(3-methoxypropoxy)-2-oxo-6,7-dihydrobenzo[a]quinolizine-3-carboxylic acid] | 6.89 | – |
| COc1cc2c(cc1OCC(F)F)CC(C(C)C)n1cc(C(=O)O)c(=O)cc1-2 (single isomer, unassigned; (-)) [Example 143, (−)-9-(2,2-difluoroethoxy)-6-isopropyl-10-methoxy-2-oxo-6,7-dihydrobenzo[a]quinolizine-3-carboxylic acid] | 6.72 | – |
| COc1cc2c(cc1OCC(C)(C)CO)CC(C(C)C)n1cc(C(=O)O)c(=O)cc1-2 (single isomer, unassigned; (-)) [Example 146, (−)-9-(3-hydroxy-2,2-dimethyl-propoxy)-6-isopropyl-10-methoxy-2-oxo-6,7-dihydrobenzo[a]quinolizine-3-carboxylic acid] | 6.28 | – |
| COc1cc2c(cc1OCC(C)(C)CO)CC(C(C)(C)C)n1cc(C(=O)O)c(=O)cc1-2 (single isomer, unassigned; (-)) [Example 151, (−)-6-tert-butyl-9-(3-hydroxy-2,2-dimethyl-propoxy)-10-methoxy-2-oxo-6,7-dihydrobenzo[a]quinolizine-3-carboxylic acid] | 6.80 | – |
| COc1cc2c(cc1OCCCCCO)CC(C(C)(C)C)n1cc(C(=O)O)c(=O)cc1-2 (single isomer, unassigned; (-)) [Example 154, (−)-6-tert-butyl-9-(5-hydroxypentoxy)-10-methoxy-2-oxo-6,7-dihydrobenzo[a]quinolizine-3-carboxylic acid] | 6.92 | – |
| COc1cc2c(cc1OCCCCCCO)CC(C(C)(C)C)n1cc(C(=O)O)c(=O)cc1-2 (single isomer, unassigned; (-)) [Example 157, (−)-6-tert-butyl-9-(6-hydroxyhexoxy)-10-methoxy-2-oxo-6,7-dihydrobenzo[a]quinolizine-3-carboxylic acid] | 6.77 | – |
| COc1cc2c(cc1OCCCCCCNC(=O)OC(C)(C)C)CC(C(C)(C)C)n1cc(C(=O)O)c(=O)cc1-2 (single isomer, unassigned; (-)) [Example 163, (−)-9-[6-(tert-butoxycarbonylamino)hexoxy]-6-tert-butyl-10-methoxy-2-oxo-6,7-dihydrobenzo[a]quinolizine-3-carboxylic acid] | 6.46 | – |
| COc1cc2c(cc1OCCCCCCN)CC(C(C)(C)C)n1cc(C(=O)O)c(=O)cc1-2 (single isomer, unassigned; (-)) [Example 165, (−)-9-(6-aminohexoxy)-6-tert-butyl-10-methoxy-2-oxo-6,7-dihydrobenzo[a]quinolizine-3-carboxylic acid hydrochloride] | – | 5.81 |
| COc1cc2c(cc1OCCCCCCCCNC(=O)OC(C)(C)C)CC(C(C)(C)C)n1cc(C(=O)O)c(=O)cc1-2 (single isomer, unassigned; (-)) [Example 169, (−)-9-[8-(tert-butoxycarbonylamino)octoxy]-6-tert-butyl-10-methoxy-2-oxo-6,7-dihydrobenzo[a]quinolizine-3-carboxylic acid] | 6.72 | – |
| COc1cc2c(cc1OCCCCCCCCN)CC(C(C)(C)C)n1cc(C(=O)O)c(=O)cc1-2 (single isomer, unassigned; (-)) [Example 171, (−)-9-(8-aminooctoxy)-6-tert-butyl-10-methoxy-2-oxo-6,7-dihydrobenzo[a]quinolizine-3-carboxylic acid hydrochloride] | – | 6.38 |
| COc1cc2c(cc1OCCCCCN)CC(C(C)(C)C)n1cc(C(=O)O)c(=O)cc1-2 (single isomer, unassigned; (-)) [Example 174, (−)-9-(5-aminopentoxy)-6-tert-butyl-10-methoxy-2-oxo-6,7-dihydrobenzo[a]quinolizine-3-carboxylic acid hydrochloride] | – | 5.62 |
| COc1cc2c(cc1OCCCSC)CC(C(C)(C)C)n1cc(C(=O)O)c(=O)cc1-2 (single isomer, unassigned; (-)) [Example 185, (−)-6-tert-butyl-10-methoxy-9-(3-methylsulfanylpropoxy)-2-oxo-6,7-dihydrobenzo[a]quinolizine-3-carboxylic acid] | 7.26 | – |
| COc1cc2c(cc1OCCCS(C)(=O)=O)CC(C(C)(C)C)n1cc(C(=O)O)c(=O)cc1-2 (single isomer, unassigned; (-)) [Example 188, (−)-6-tert-butyl-10-methoxy-9-(3-methylsulfonylpropoxy)-2-oxo-6,7-dihydrobenzo[a]quinolizine-3-carboxylic acid] | 6.66 | – |
| COc1cc2c(cc1OCCN1CCOCC1)CC(C(C)(C)C)n1cc(C(=O)O)c(=O)cc1-2 (single isomer, unassigned; (-)) [Example 191, (−)-6-tert-butyl-10-methoxy-9-(2-morpholinoethoxy)-2-oxo-6,7-dihydrobenzo[a]quinolizine-3-carboxylic acid] | 6.72 | – |
| COc1cc2c(cc1OCCCN1CCOCC1)CC(C(C)(C)C)n1cc(C(=O)O)c(=O)cc1-2 (single isomer, unassigned; (-)) [Example 194, (−)-6-tert-butyl-10-methoxy-9-(3-morpholinopropoxy)-2-oxo-6,7-dihydrobenzo[a]quinolizine-3-carboxylic acid] | 6.57 | – |
| COCCCOc1cc2c(cc1OC)-c1cc(=O)c(C(=O)O)cn1C(CC(F)(F)F)C2 (single isomer, unassigned; (-)) [Example 201, (−)-10-methoxy-9-(3-methoxypropoxy)-2-oxo-6-(2,2,2-trifluoroethyl)-6,7-dihydrobenzo[a]quinolizine-3-carboxylic acid] | 4.85 | – |
